Measured values from US8952024B2, “Herbicidal pyrimidone derivatives” (E I du Pont de Nemours and Company, priority 2009, dated 2015).
Like-named read-outs stand apart in the source and are kept apart here.

Tests used:
Assay in all cases: Test B pre-/postemergence plant response
Assay type in all cases: in vivo
[1] = test system: wheat (Triticum aestivum); conditions: for plant injury at 31 g/ha: 31 g ai/ha; for plant injury at 62 g/ha: 62 g ai/ha; for plant injury at 125 g/ha: 125 g ai/ha
Summary of the method: (§1)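 Greenhouse herbicide screen. Pre- and postemergence (1- to 4-leaf) spray of compound in solvent/surfactant mixture; loam–sand soil for pre, peat/vermiculite medium for post. Visual control rating 0–100 at 13 to 15 days after treatment.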

[2] = test system: cocklebur (Xanthium strumarium); conditions: Preemergence
Summary of the method: as §1

[3] = test system: velvetleaf (Abutilon theophrasti); conditions: for pest or weed control at 31 g/ha: 31 g ai/ha; for pest or weed control at 62 g/ha: 62 g ai/ha; for pest or weed control at 125 g/ha: 125 g ai/ha
Summary of the method: as §1

soybean (Glycine max) = conditions: for plant injury at 31 g/ha: 31 g ai/ha; for plant injury at 62 g/ha: 62 g ai/ha; for plant injury at 125 g/ha: 125 g ai/ha
Summary of the method: as §1

[4] = test system: goosegrass (Eleusine indica); conditions: for pest or weed control at 31 g/ha: 31 g ai/ha; for pest or weed control at 62 g/ha: 62 g ai/ha; for pest or weed control at 125 g/ha: 125 g ai/ha
Summary of the method: as §1

[5] = test system: johnsongrass (Sorghum halepense); conditions: for pest or weed control at 31 g/ha: 31 g ai/ha; for pest or weed control at 62 g/ha: 62 g ai/ha; for pest or weed control at 125 g/ha: 125 g ai/ha
Summary of the method: as §1

[6] = Preemergence, 250 g ai/ha, 0 to 100 scale
[7] = Triticum aestivum, pre-emergence, Preemergence, scale 0 to 100 (0 no effect, 100 complete control), read-out: Plant response rating, Wheat
[8] = Abutilon theophrasti, pre-emergence, 360 h, Preemergence, scale 0 to 100 (0 no effect, 100 complete control), read-out: Plant response rating, Velvetleaf
[9] = Glycine max, pre-emergence, Preemergence, scale 0 to 100 (0 no effect, 100 complete control), read-out: Plant response rating, Soybean
[10] = Eleusine indica, pre-emergence, Preemergence, scale 0 to 100 (0 no effect, 100 complete control), read-out: Plant response rating, Goosegrass
[11] = Sorghum halepense, pre-emergence, Preemergence, scale 0 to 100 (0 no effect, 100 complete control), read-out: Plant response rating, Johnsongrass

COCCn1c(-c2cc(F)cc(F)c2)ncc(C(=O)C2=C(O)C3CCC(C3)C2=O)c1=O (stereo not shown) [Compound 243, 2-(3,5-difluorophenyl)-5-[(2-hydroxy-4-oxobicyclo[3.2.1]oct-2-en-3-yl)carbonyl]-3-(2-methoxyethyl)-4(3H)-pyrimidinone] was tested, and the “Wheat plant response rating” value [1, 6] was 70, the plant injury at 31 g/ha ([1]; Triticum aestivum, post-emergence, Postemergence, 0 to 100 scale (0 no effect, 100 complete control), read-out: Plant response rating, Wheat) was 85% and the plant injury at 62 g/ha ([1]; Triticum aestivum, post-emergence, Postemergence, scale 0 to 100 (0 no effect, 100 complete control), read-out: Plant response rating, Wheat) was 95%. For the same compound, the plant injury at 125 g/ha ([1]; Triticum aestivum, post-emergence, Postemergence, scale 0 (no effect) to 100 (complete control), 13 to 15 days, read-out: Plant response rating, Wheat) was 95%, the plant injury at 250 g/ha ([1]; Triticum aestivum, post-emergence, Postemergence, 250 g ai/ha, scale 0 to 100 (0 no effect, 100 complete control), 13 to 15 days, read-out: Plant response rating, Wheat) was 100% and the plant injury at 31 g/ha [1, 7] was 0%. The plant injury at 62 g/ha [1, 7] was 40%, the plant injury at 125 g/ha ([1]; Triticum aestivum, pre-emergence, Preemergence, scale 0 to 100, 0 no effect, 100 complete control, read-out: Plant response rating, Wheat) was 70% and the “Cocklebur plant response rating” value ([2]; 250 g ai/ha, 0 to 100 scale) was 98. The pest or weed control at 62 g/ha ([2]; Xanthium strumarium, pre-emergence, 62 g ai/ha, scale 0 to 100 (0 no effect, 100 complete control), read-out: Plant response rating, Cocklebur) was 75%, the pest or weed control at 125 g/ha ([2]; Xanthium strumarium, pre-emergence, 125 g ai/ha, scale 0 to 100, 0 no effect, 100 complete control, read-out: Plant response rating, Cocklebur) was 95% and the pest or weed control at 31 g/ha ([3]; Abutilon theophrasti, post-emergence, 360 h, Postemergence, 0 to 100 scale (0 no effect, 100 complete control), read-out: Plant response rating, Velvetleaf) was 100%. It also gave a pest or weed control at 62 g/ha ([3]; Abutilon theophrasti, post-emergence, 360 h, Postemergence, scale 0 to 100 (0 no effect, 100 complete control), read-out: Plant response rating, Velvetleaf) of 100%, a pest or weed control at 125 g/ha ([3]; Abutilon theophrasti, post-emergence, 360 h, Postemergence, scale 0 (no effect) to 100 (complete control), 13 to 15 days, read-out: Plant response rating, Velvetleaf) of 100% and a pest or weed control at 250 g/ha ([3]; Abutilon theophrasti, post-emergence, 360 h, Postemergence, 250 g ai/ha, scale 0 to 100 (0 no effect, 100 complete control), 13 to 15 days, read-out: Plant response rating, Velvetleaf) of 100%. It also gave a pest or weed control at 31 g/ha [3, 8] of 100%, a pest or weed control at 62 g/ha [3, 8] of 100% and a pest or weed control at 125 g/ha ([3]; Abutilon theophrasti, pre-emergence, 360 h, Preemergence, scale 0 to 100, 0 no effect, 100 complete control, read-out: Plant response rating, Velvetleaf) of 100%. The “Velvetleaf plant response rating” value [3, 6] was 100, the plant injury at 31 g/ha (soybean (Glycine max); Glycine max, post-emergence, Postemergence, 0 to 100 scale (0 no effect, 100 complete control), read-out: Plant response rating, Soybean) was 95% and the plant injury at 62 g/ha (soybean (Glycine max); Glycine max, post-emergence, Postemergence, scale 0 to 100 (0 no effect, 100 complete control), read-out: Plant response rating, Soybean) was 98%. The plant injury at 125 g/ha (soybean (Glycine max); Glycine max, post-emergence, Postemergence, scale 0 (no effect) to 100 (complete control), 13 to 15 days, read-out: Plant response rating, Soybean) was 100%, the plant injury at 250 g/ha (soybean (Glycine max); Glycine max, post-emergence, Postemergence, 250 g ai/ha, scale 0 to 100 (0 no effect, 100 complete control), 13 to 15 days, read-out: Plant response rating, Soybean) was 100% and the plant injury at 31 g/ha (soybean (Glycine max); [9]) was 65%. The plant injury at 62 g/ha (soybean (Glycine max); [9]) was 75%, the plant injury at 125 g/ha (soybean (Glycine max); Glycine max, pre-emergence, Preemergence, scale 0 to 100, 0 no effect, 100 complete control, read-out: Plant response rating, Soybean) was 85% and the “Soybean plant response rating” value (soybean (Glycine max); [6]) was 95. The pest or weed control at 31 g/ha ([4]; Eleusine indica, post-emergence, Postemergence, 0 to 100 scale (0 no effect, 100 complete control), read-out: Plant response rating, Goosegrass) was 95%, the pest or weed control at 62 g/ha ([4]; Eleusine indica, post-emergence, Postemergence, scale 0 to 100 (0 no effect, 100 complete control), read-out: Plant response rating, Goosegrass) was 95% and the pest or weed control at 125 g/ha ([4]; Eleusine indica, post-emergence, Postemergence, scale 0 (no effect) to 100 (complete control), 13 to 15 days, read-out: Plant response rating, Goosegrass) was 98%. It also gave a pest or weed control at 250 g/ha ([4]; Eleusine indica, post-emergence, Postemergence, 250 g ai/ha, scale 0 to 100 (0 no effect, 100 complete control), 13 to 15 days, read-out: Plant response rating, Goosegrass) of 98%, a pest or weed control at 31 g/ha [4, 10] of 98% and a pest or weed control at 62 g/ha [4, 10] of 100%. For the same compound, the pest or weed control at 125 g/ha ([4]; Eleusine indica, pre-emergence, Preemergence, scale 0 to 100, 0 no effect, 100 complete control, read-out: Plant response rating, Goosegrass) was 100%, the “Goosegrass plant response rating” value [4, 6] was 100 and the “Johnsongrass plant response rating” value [5, 6] was 100. For the same compound, the pest or weed control at 31 g/ha ([5]; Sorghum halepense, post-emergence, Postemergence, 0 to 100 scale (0 no effect, 100 complete control), read-out: Plant response rating, Johnsongrass) was 100%, the pest or weed control at 62 g/ha ([5]; Sorghum halepense, post-emergence, Postemergence, scale 0 to 100 (0 no effect, 100 complete control), read-out: Plant response rating, Johnsongrass) was 100% and the pest or weed control at 125 g/ha ([5]; Sorghum halepense, post-emergence, Postemergence, scale 0 (no effect) to 100 (complete control), 13 to 15 days, read-out: Plant response rating, Johnsongrass) was 100%. The pest or weed control at 250 g/ha ([5]; Sorghum halepense, post-emergence, Postemergence, 250 g ai/ha, scale 0 to 100 (0 no effect, 100 complete control), 13 to 15 days, read-out: Plant response rating, Johnsongrass) was 100%, the pest or weed control at 31 g/ha [5, 11] was 70% and the pest or weed control at 62 g/ha [5, 11] was 95%. It also gave a pest or weed control at 125 g/ha ([5]; Sorghum halepense, pre-emergence, Preemergence, scale 0 to 100, 0 no effect, 100 complete control, read-out: Plant response rating, Johnsongrass) of 95%.
